The values below come from ChEMBL document CHEMBL1201862, “PubChem BioAssay data set” (2004).

The IC50 is the point on the concentration scale where inhibition reaches its midpoint. As a reminder, the EC50 is the concentration needed to bring the measured effect to its halfway point. Broadly, the AC50 is the concentration at which the activity in the assay is half-maximal.

Assay [1] concerns the target G-protein coupled receptor 55 (Homo sapiens, UniProt Q9Y2T6). The assay is described as follows: SAR Analysis of Selective Antagonists of GPR55 using an Image-Based Assay - Set 4. [Related pubchem assays (depositor defined):AID2013, AID2026]. It counts as functional.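 Note: antagonism of response to 5 µM lysophosphatidylinositol agonist.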
For assay [2], the target named is T1, Cannabinoid receptor 1 (Homo sapiens, UniProt P21554). Kind of assay: SAR analysis of agonists of the Cannabinoid Receptor 1 using an Image-Based Assay - Set 4. [Related pubchem assays (depositor defined):AID2013, AID2026]. The class given is functional.
Assay [3] concerns the target T2, G-protein coupled receptor 35 (Homo sapiens, UniProt Q9HC97). Kind of assay: SAR analysis of Agonists of the GPR35 Receptor using an Image-Based Assay - Set 4. [Related pubchem assays (depositor defined):AID2013, AID2026]. The class given is functional.
Assay [4] concerns the target T1, Cannabinoid receptor 1. The assay is described as follows: SAR analysis of antagonists of the Cannabinoid Receptor 1 using an Image-Based Assay - Set 4. [Related pubchem assays (depositor defined):AID2013, AID2026]. It counts as functional.
Assay [5] deals with T2, G-protein coupled receptor 35. Kind of assay: SAR analysis of Antagonists of the GPR35 Receptor using an Image-Based Assay - Set 6. [Related pubchem assays (depositor defined):AID2013, AID2026]. The class given is functional.
Assay [6] deals with T3, Cannabinoid receptor 2 (Homo sapiens, UniProt P34972). Kind of assay: SAR analysis of agonists of the Cannabinoid Receptor 2 using an Image-Based Assay - Set 3. [Related pubchem assays (depositor defined):AID2013, AID2026]. It counts as functional.
In assay [7] the target is T3, Cannabinoid receptor 2. The assay is described as follows: SAR analysis of antagonists of the Cannabinoid Receptor 2 using an Image-Based Assay - Set 3. [Related pubchem assays (depositor defined):AID2013, AID2026]. The class given is functional.
Assay [8] addresses Intestinal-type alkaline phosphatase (Homo sapiens, UniProt P09923). Kind of assay: human intestinal alkaline phosphatase activators, dose response, biochemical, luminescence, uHTS hits (AID 463120). The class given is functional.
The test system of the next assay is INS1. Kind of assay: beta cell apoptosis inhibitors, cytokine rescue, dose response, luminescence, retest (AID 449756).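 Note: cell death triggered by IL-1 beta plus TNF-alpha plus IFN-gamma mixture; protective hits raise ATP signal compared with cytokine alone wells.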 The class given is functional, cell-based. As to conditions: Rattus norvegicus.
The target of a further assay is Hexokinase-1 (Homo sapiens, UniProt P19367). The assay is described as follows: hexokinase 1 activators, dose response, selectivity assay for HKDC1 activator project, biochemical (AID 504762). It counts as functional.
The next assay has as its target T4, Hexokinase HKDC1 (Homo sapiens, UniProt Q2TB90).
T4 sequence (Q2TB90 whole entry): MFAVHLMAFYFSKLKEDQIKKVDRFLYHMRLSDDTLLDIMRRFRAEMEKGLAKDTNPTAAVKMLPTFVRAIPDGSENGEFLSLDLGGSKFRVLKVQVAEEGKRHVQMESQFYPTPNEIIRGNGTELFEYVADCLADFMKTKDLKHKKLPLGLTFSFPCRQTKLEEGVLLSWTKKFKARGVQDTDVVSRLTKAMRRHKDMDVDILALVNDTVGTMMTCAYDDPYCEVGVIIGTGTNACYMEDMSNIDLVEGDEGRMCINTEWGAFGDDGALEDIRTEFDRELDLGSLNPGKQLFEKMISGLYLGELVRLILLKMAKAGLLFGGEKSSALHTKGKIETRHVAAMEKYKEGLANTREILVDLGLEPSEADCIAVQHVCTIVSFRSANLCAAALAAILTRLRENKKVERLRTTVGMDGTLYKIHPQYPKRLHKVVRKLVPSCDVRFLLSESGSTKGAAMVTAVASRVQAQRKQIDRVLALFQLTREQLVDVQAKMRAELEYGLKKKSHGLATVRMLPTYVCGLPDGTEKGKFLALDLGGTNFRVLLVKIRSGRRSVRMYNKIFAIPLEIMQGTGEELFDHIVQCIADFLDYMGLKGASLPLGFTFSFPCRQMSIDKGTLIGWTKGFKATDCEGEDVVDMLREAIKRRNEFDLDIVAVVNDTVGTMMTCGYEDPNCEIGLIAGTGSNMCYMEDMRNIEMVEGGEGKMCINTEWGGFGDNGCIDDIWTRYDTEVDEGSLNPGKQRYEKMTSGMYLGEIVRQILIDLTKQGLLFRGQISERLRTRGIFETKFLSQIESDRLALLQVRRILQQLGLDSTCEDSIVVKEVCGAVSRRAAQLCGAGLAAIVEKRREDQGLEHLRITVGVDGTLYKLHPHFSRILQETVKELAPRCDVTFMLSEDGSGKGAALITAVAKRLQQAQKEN
Kind of assay: HKDC1 hexokinase activators, dose response, biochemical, W721R variant (AID 504730). The class given is functional.

In a further assay the target is Paired box protein Pax-8 (Homo sapiens, UniProt Q06710). The assay is described as follows: inhibitors of PAX8-driven TPO luciferase reporter, dose response, RMG-I cells, cherry-pick (AID 687027).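 Note: luciferase reporter driven by Pax8 target thyroperoxidase promoter measured by SteadyGlo luminescence.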 It counts as functional, cell-based. In general terms: A reporter such as luciferase makes a cellular process visible.
The nature of assay [9]: cytotoxicity toward NIH3T3 fibroblasts, dose response, counter-screen, cell-based, ATP luminescence, mouse fibroblasts (AID 2010).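 Note: cells exposed to compound for about 90 hours before reading.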 It counts as functional. (A counterscreen serves to expose hits that act by an unwanted route or on another target.)
Assay [10] is described as follows: inhibitors of intracellular T. cruzi replication, confirmation, NIH3T3 host cells, beta-gal luminescence (AID 2044).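 Note: intracellular parasites grown in NIH/3T3 mouse fibroblasts as host cells; luminescent beta-galactosidase reporter signal from transgenic T. cruzi replicating inside host cells; inhibitors lower the luminescence signal.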 The class given is functional, cell-based.
Assay [11] deals with T5, Alkaline phosphatase, tissue-nonspecific isozyme (Homo sapiens, UniProt P05186).
T5 sequence (P05186 whole entry): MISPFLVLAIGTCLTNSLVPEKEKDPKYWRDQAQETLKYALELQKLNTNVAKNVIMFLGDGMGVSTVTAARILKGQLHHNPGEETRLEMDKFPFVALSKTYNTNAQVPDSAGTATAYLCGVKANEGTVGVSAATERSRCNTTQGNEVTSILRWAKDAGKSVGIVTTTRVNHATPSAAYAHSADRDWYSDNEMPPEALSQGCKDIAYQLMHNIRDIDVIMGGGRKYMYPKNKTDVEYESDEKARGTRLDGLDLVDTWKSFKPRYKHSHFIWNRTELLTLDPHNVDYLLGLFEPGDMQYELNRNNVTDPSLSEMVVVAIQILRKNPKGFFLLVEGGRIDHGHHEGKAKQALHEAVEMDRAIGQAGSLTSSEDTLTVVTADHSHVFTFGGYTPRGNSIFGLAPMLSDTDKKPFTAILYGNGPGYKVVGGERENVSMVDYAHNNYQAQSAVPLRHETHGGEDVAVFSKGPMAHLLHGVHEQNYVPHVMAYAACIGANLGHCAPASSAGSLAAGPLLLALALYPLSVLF
The assay is described as follows: human TNAP enzyme inhibitors, SAR follow-up, biochemical, luminescent, dose response (AID 1056).

The target in assay [12] is Glyceraldehyde-3-phosphate dehydrogenase (Homo sapiens, UniProt P04406).
The nature of assay [13]: Counterscreen for AddAB inhibitors: absorbance-based bacterial cell-based high throughput dose response assay for inhibitors of bacterial viability. [Related pubchem assays (depositor defined):AID435030, AID449728, AID449731, AID488942, AID488955, AID488956]. The class given is functional.
In assay [14] the target is T6, SUMO-activating enzyme (Homo sapiens, UniProt Q9UBT2). The assay is described as follows: SUMOylation inhibitor hit validation, confirmation, SUMOylation inhibitor project, biochemical, AlphaScreen (AID 2018). The class given is functional. (In general: In Alpha technology, singlet oxygen from a donor bead excites a nearby acceptor bead.)
The target in assay [15] is T6, SUMO-activating enzyme. Kind of assay: inhibitors of in vitro SUMOylation cascade, primary screen, biochemical, HTRF, uHTS (AID 2006). It counts as protein-complex assay.
In assay [16] the target is T7, Kappa-type opioid receptor (Homo sapiens, UniProt P41145). Kind of assay: KOR agonist analogs, imaging readout, SAR follow-up, image-based (AID 2359). It counts as functional.
The target in assay [17] is T8, Delta-type opioid receptor (Homo sapiens, UniProt P41143). The assay is described as follows: DOR agonists, SAR follow-up, image-based (AID 2370). The class given is functional.
The target of assay [18] is T7, Kappa-type opioid receptor. Kind of assay: KOR antagonists by imaging, SAR follow-up, image-based (AID 2348). The class given is functional.
Assay [19] deals with T9, Mu-type opioid receptor (Homo sapiens, UniProt P35372). Kind of assay: MOR agonists by imaging, SAR follow-up, image-based (AID 2352). It counts as functional.
Assay [20] has as its target T9, Mu-type opioid receptor. Kind of assay: MOR antagonists, SAR follow-up, image-based (AID 2420).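 Note: compounds added before stimulation of receptor with agonist DAMGO.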 It counts as functional.
Assay [21] has as its target T8, Delta-type opioid receptor. Kind of assay: DOR antagonists, SAR follow-up, image-based (AID 2357). The class given is functional.
The target in assay [22] is T7, Kappa-type opioid receptor. The assay is described as follows: kappa opioid receptor blockers, cell-based, luminescence, beta-arrestin, SAR follow-up (AID 2285). It counts as functional.
Another assay concerns the target T10, Coagulation factor XII (Homo sapiens, UniProt P00748).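 Note: activated factor XIIa alpha cleaving a fluorogenic AMC peptide substrate; inhibitor potency from loss of enzyme activity.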
T10 sequence (P00748 whole entry): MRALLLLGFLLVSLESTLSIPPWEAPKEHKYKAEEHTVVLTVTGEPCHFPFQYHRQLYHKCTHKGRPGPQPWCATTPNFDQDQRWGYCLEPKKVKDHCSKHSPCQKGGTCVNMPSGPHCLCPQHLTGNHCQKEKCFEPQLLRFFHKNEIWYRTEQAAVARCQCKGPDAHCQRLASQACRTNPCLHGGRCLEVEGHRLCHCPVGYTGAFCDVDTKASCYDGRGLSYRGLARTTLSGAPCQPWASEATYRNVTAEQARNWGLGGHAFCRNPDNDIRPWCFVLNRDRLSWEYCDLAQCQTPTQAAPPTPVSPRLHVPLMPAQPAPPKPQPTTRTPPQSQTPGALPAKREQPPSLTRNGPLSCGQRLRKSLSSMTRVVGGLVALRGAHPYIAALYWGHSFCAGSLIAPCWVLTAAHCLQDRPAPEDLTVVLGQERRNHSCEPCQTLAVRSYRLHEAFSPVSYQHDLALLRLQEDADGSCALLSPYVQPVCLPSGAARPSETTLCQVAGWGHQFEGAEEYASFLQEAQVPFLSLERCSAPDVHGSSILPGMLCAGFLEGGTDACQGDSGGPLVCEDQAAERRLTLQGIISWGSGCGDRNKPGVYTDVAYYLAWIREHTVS
The class given is functional.

The source made the active and inactive calls.

T3 sequence (P34972 whole entry): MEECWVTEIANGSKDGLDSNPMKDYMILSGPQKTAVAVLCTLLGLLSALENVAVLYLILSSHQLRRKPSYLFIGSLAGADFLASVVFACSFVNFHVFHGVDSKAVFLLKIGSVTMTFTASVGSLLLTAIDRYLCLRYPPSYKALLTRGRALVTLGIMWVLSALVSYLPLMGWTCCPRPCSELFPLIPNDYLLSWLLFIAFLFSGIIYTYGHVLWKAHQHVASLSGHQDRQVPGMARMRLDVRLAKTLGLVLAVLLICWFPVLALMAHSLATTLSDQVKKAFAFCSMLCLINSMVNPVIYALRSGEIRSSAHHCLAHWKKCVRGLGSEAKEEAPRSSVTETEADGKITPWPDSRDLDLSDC
T1 sequence (P21554 whole entry): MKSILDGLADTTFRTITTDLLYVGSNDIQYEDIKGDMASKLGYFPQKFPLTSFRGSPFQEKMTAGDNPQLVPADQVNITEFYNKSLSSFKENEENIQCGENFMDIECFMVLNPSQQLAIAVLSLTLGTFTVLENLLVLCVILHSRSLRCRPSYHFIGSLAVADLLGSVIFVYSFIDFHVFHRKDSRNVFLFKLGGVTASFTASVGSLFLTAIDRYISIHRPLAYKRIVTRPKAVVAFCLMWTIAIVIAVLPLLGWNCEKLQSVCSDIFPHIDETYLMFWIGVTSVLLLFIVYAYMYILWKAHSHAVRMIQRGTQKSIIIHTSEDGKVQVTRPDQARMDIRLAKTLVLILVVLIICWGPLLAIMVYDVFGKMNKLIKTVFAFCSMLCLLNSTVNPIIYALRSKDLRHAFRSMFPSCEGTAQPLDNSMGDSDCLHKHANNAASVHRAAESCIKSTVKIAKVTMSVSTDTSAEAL
T7 sequence (P41145 whole entry): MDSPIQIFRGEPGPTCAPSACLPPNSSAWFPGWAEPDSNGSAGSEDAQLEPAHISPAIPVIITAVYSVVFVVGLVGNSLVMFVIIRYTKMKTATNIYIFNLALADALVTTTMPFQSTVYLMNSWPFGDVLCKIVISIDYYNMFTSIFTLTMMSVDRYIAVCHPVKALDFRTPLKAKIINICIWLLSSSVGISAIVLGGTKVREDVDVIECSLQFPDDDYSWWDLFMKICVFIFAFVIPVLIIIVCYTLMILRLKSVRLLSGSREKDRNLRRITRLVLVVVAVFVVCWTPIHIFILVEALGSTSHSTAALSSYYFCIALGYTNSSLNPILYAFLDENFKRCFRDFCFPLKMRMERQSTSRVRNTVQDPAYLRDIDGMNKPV
T6 sequence (Q9UBE0 whole entry): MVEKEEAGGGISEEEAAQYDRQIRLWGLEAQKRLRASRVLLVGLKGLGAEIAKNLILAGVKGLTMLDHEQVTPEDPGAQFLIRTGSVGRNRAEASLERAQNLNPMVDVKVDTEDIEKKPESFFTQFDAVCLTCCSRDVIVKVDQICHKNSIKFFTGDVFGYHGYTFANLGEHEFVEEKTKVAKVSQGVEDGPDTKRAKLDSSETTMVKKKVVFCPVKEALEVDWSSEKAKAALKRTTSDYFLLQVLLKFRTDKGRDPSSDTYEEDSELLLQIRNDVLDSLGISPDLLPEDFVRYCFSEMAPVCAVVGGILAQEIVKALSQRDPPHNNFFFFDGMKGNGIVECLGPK
T6 sequence (Q9UBT2 whole entry): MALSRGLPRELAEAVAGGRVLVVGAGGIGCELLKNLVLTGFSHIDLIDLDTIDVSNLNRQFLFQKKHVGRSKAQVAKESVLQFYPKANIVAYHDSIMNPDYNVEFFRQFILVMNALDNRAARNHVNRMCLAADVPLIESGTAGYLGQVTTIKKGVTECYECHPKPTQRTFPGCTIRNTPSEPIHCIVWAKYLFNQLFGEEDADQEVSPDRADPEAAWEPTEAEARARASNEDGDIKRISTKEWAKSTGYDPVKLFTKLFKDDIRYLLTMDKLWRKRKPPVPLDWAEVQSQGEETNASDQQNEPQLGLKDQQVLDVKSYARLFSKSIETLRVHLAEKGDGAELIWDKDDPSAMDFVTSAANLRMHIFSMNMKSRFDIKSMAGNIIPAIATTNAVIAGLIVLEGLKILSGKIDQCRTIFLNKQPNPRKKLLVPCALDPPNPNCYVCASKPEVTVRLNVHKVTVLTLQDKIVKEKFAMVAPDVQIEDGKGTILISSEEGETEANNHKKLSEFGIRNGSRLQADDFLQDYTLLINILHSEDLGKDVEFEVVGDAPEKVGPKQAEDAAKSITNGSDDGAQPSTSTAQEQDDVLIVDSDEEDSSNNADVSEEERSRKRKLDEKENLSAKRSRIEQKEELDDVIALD
T8 sequence (P41143 whole entry): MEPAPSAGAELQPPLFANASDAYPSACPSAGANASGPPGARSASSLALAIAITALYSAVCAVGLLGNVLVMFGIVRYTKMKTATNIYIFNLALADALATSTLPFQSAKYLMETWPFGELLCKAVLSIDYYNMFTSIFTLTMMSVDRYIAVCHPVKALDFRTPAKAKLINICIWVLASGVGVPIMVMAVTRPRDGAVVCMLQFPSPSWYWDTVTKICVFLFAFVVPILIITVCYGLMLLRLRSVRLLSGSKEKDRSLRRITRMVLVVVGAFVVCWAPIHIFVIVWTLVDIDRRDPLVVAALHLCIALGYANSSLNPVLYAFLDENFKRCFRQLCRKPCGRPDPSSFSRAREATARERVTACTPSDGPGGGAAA
T2 sequence (Q9HC97 whole entry): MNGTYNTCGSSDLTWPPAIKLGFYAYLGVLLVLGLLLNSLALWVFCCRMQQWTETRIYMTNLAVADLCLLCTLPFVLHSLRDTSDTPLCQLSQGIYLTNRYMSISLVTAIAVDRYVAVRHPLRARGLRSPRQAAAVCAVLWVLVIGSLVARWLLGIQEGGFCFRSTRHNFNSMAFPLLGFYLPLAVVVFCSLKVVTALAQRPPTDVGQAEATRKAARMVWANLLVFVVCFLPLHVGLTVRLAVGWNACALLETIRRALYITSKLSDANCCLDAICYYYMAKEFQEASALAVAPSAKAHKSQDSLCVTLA
T9 sequence (P35372 whole entry): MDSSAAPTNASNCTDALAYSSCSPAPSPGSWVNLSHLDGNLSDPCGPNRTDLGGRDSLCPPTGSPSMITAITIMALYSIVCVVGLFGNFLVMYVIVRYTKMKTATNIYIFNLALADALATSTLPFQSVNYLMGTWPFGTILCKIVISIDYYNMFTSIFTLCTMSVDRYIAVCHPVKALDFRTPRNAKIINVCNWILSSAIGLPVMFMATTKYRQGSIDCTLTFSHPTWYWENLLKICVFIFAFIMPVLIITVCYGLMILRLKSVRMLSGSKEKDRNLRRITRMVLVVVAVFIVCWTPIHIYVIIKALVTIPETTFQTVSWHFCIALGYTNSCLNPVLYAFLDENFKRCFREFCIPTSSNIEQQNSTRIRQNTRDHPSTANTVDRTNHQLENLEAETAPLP
G-protein coupled receptor 55, sequence (Q9Y2T6 whole entry): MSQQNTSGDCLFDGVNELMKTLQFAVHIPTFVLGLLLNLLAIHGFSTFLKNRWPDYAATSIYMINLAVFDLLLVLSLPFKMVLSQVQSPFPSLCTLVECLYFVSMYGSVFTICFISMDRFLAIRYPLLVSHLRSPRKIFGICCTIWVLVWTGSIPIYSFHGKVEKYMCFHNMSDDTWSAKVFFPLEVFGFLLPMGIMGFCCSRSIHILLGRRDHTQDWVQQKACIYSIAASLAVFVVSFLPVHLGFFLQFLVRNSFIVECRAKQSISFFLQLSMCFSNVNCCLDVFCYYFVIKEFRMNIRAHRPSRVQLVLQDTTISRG
Glyceraldehyde-3-phosphate dehydrogenase, sequence (P04406 whole entry): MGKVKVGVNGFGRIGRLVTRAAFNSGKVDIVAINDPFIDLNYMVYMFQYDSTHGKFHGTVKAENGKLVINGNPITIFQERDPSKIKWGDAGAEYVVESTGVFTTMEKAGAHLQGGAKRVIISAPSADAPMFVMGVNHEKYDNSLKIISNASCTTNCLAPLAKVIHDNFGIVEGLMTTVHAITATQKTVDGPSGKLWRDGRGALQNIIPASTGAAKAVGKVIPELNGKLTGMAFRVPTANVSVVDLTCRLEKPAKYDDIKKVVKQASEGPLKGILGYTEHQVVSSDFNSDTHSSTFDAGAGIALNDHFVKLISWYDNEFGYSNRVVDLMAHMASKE
Paired box protein Pax-8, sequence (Q06710 whole entry): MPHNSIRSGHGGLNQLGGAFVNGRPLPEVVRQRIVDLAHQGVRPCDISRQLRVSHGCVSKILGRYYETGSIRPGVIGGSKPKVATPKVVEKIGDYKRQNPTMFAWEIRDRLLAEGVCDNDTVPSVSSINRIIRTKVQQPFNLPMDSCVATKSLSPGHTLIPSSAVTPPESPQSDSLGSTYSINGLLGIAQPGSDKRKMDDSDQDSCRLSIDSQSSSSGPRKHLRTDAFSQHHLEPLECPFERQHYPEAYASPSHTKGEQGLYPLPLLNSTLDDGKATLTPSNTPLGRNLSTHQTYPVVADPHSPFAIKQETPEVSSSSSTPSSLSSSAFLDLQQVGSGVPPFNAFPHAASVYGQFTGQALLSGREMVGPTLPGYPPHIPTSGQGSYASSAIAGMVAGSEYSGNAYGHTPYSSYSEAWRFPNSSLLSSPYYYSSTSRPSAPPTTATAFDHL
Intestinal-type alkaline phosphatase, sequence (P09923 whole entry): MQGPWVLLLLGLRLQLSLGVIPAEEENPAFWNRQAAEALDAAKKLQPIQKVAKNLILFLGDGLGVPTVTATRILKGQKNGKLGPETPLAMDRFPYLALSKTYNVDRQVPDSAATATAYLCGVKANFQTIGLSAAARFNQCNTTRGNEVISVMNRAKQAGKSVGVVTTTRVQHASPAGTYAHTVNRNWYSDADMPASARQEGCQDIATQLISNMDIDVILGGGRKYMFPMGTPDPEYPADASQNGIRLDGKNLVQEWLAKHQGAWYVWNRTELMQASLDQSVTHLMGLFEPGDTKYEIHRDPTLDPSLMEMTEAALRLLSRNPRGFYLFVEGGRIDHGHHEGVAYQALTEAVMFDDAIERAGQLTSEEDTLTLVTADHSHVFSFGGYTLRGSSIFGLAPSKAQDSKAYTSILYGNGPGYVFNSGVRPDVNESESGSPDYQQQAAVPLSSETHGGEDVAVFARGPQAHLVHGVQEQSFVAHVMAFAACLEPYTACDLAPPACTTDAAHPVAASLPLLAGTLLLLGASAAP

As for `Cc1ccc(C(C)C(=O)N2CCC(n3nc(-c4ccccc4)oc3=O)CC2)cc1` (stereo unspecified), the IC50 was 7.6 µM (active) in [1], 3.31 µM (active) on Cannabinoid receptor 1 [4], > 32 µM (inactive) in assay [5] and 22.9 µM (inactive) at Cannabinoid receptor 2 [7]. Moreover, the EC50 (at Cannabinoid receptor 1 [2]; in assay [3]; on Cannabinoid receptor 2 [6]) was > 32 µM (inactive) throughout.

As for `CC(C)CCNc1ncnc2c1nnn2Cc1ccccc1Cl`, the EC50 in [8] is > 100 µM (inactive).

With `COc1ccc(C2=NN=C(Nc3cc(S(=O)(=O)N(C)C)ccc3C)SC2)c(OC)c1`, the concentration at half-maximal activity (AC50) was 5.48 µM (active) in the assay on INS1 and 6.77 µM (active) at Paired box protein Pax-8. The EC50 is 17.4 µM (active) at Hexokinase-1, 18.5 µM (active) at Hexokinase HKDC1, 5.85 µM (active) in assay [9] and 3.57 µM (active) in assay [10].

Consider `COc1ccc(Cc2nnc(N3C(=O)[C@H]4CCCC[C@H]4C3=O)[nH]2)cc1`, for which the values for the IC50 in [11] and in [12] were > 100 µM (inactive) and > 100 µM (not active), respectively.

`O=C(NCc1cccnc1)c1ccc([N+](=O)[O-])o1`: the EC50 was 0.137 µM (active) in the assay “cells”, > 60 µM (inconclusive) in assay [9] and < 0.1 µM (active) in assay [10]. Also, the IC50 in assay [13] was > 39.5 µM (inactive).

As to `Sc1nnc(-c2ccncc2)n1/N=C/c1cn(-c2ccccc2)nc1-c1ccc(Cl)cc1`, the results for the IC50 on SUMO-activating enzyme [14] and on SUMO-activating enzyme [15] were 3.28 µM (active) and 28.8 µM (active), respectively.

Regarding `CCOc1ccc(-c2n[nH]c(C)c2-c2ccc(OC)cc2)c(O)c1`, the IC50 was 15.6 µM (inactive) in assay [1], 0.85 µM (active) at Cannabinoid receptor 1 [4], > 32 µM (inactive) in [5] and 3.79 µM (active) on Cannabinoid receptor 2 [7]. For the same compound, the EC50 at Cannabinoid receptor 1 [2] is > 32 µM (inactive); in assay [3], 25.5 µM (inactive); on Cannabinoid receptor 2 [6], 31.6 µM (inactive).

Consider `O=C(NC(NC(=S)Nc1ccc(Cl)c(Cl)c1)C(Cl)(Cl)Cl)OCc1ccccc1` (stereo unspecified), for which the EC50 (in assay [16]; in [17]; at Mu-type opioid receptor [19]) was > 32 µM (inactive) each time. The IC50 in assay [18] was 11.9 µM (inactive); on Mu-type opioid receptor [20], > 32 µM (inactive); in [21], > 32 µM (inactive); in assay [22], > 10 µM (inactive).

On to `COc1cccc(NC(C)(C)c2nnnn2-c2c(C)cccc2C)c1`, for which, on Coagulation factor XII, the IC50 was > 50 µM (inactive).

As for `CC(=O)Nc1ccc(S(=O)(=O)NCc2ccc(C(=O)NCCN(C)Cc3ccccc3)cc2)cc1`, the EC50 (in [16]; in assay [17]; at Mu-type opioid receptor [19]) was > 32 µM (inactive) throughout. Besides, the IC50 in assay [18] is > 32 µM (inactive); on Mu-type opioid receptor [20], > 32 µM (inactive); in [21] it was > 32 µM (inactive); in assay [22], > 10 µM (inactive).

For `O=C(/C=C/c1ccco1)NC(=S)Nc1ccc(O)c(-c2nc3ccccc3s2)c1`, the IC50 on SUMO-activating enzyme [14] is 12.1 µM (active); at SUMO-activating enzyme [15], 18 µM (active).
